Here are results for four molecules from patent US20240390465A1, “Endostatin Peptides for the Treatment of Tumors, Fibrosis and Acute Lung Injury” (MUSC Foundation for Research Development, priority 2021, published 2024).

Residues, ends and D or L forms follow the SMILES beside them. *: point of attachment. Biotin = O=C1N[C@H]2[C@H](CS[C@H]2CCCCC(=O)*)N1; Ahx = NCCCCCC(=O)O

Data set [1] relates to fibroblasts from lungs of patients with systemic sclerosis (SSc). The data set is described as follows: SMA and Collagen 1A2 RNA in SSc lung fibroblasts. The data set is classed as cell-based, human. As to the method: Fibroblasts were treated with TGFbeta with or without peptide Bio96-17 for 48 hours. RNA was extracted and levels of alpha smooth muscle actin (SMA) measured by qRT-PCR.
SSc fibroblasts were treated with 10 μg/ml BioE4-03 for 72 hours. RNA was extracted and used to measure SMA and Collagen 1A2.

Data set [2] has as its system fibroblasts from lungs of patients with Idiopathic Pulmonary Fibrosis (IPF). The data set can be described thus: SMA and Collagen 1A2 RNA in IPF lung fibroblasts. The conditions noted are these: IPF lung fibroblasts (FIG. 17). The class given is cell-based, human.
Data set [3] deals with TRAMP C-2 mouse prostate tumor cells. The data set is described as follows: Prostate tumor growth in mice, peptide by oral gavage. The class given is in vivo. The conditions noted are these: C57BL6 mice, TRAMP C-2 tumors, 50 μg/dose oral gavage twice per week, vs water control. As to the method:
(§1) For each of the experiments, descriptive statistics (means and standard deviations) for tumor volumes were calculated over time for each experimental group (i.e. Experiment 1: Control vs. BioE4 (FIG. 1); Experiment 2: PBS, Bio96, and BioE4-03 (FIG. 5)). Since tumor growth tends to be curvilinear, general linear mixed models (GLMMs) were created to estimate treatment-specific growth curves over time and to make comparisons between the peptide treatments and control. Separate GLMMs were constructed for each experiment, and each GLMM included random effects for each mouse, to control for the fact that the repeated volume measurements within a given mouse were correlated with one another. Tumor volume served as the dependent variable in each model, while time (in days), time^2, treatment, treatment×time, and treatment×time^2 were included as independent variables. Using these models, the estimated mean tumor volumes at specific selected time points and the mean rate of change in the tumor volumes at specific selected time points were compared. If a mouse's tumor grew too large, it was sacrificed; however, all tumor volumes measured prior to sacrifice were included in the modeling process. […]
Two groups of wild type C57BL6 mice from Jax Labs were injected with TRAMP C-2 mouse prostate tumor cells in the right flank. […] Tumors were measured 3 times/week. […]

Data set [4] has as its system me-38 colon adenocarcinoma tumor cells. The data set can be described thus: Colon adenocarcinoma tumor growth in mice, peptide by oral gavage. The data set is classed as in vivo. Conditions: sMIC tolerant transgenic mice, 100 μg/mouse oral gavage twice/week. As for the experimental part:
as §1, with “Tumor volume served as the dependent variable in each model, while time (in days), time^2, treatment, treatment×time, and treatment×time^2 were included as independent variables. Using these models, the estimated mean tumor volumes at specific selected time points and the mean rate of change in the tumor volumes at specific selected time points were compared.” left out
sMIC tolerant transgenic (MB481 strain) mice (Liu et al, Perturbation of NK cell peripheral homeostasis accelerates prostate carcinoma metastasis. J. Clin. Invest. 123:4410, 2013) were injected with 1×10^5 me-38 colon adenocarcinoma tumor cells via subcutaneous injection When tumor size reached approximately 75 mm^3, treatment was started. start treatment at four group. […] Tumor volume was measured 3 times per week. […]

Another data set has as its system tumors. The data set is described as follows: Histologic analysis of tumors (H&E, Masson Trichrome). The data set is classed as in vivo, mouse. As for the experimental part: Histological analysis of tumors treated with vehicle alone, or with BioE4-03 or Bio96 peptides was performed.

As for `CC(C)C[C@H](NC(=O)[C@H](CC(C)C)NC(=O)[C@H](CCCNC(=N)N)NC(=O)CNC(=O)CNC(=O)[C@H](CC(C)C)NC(=O)[C@H](CC(C)C)NC(=O)[C@H](CO)NC(=O)[C@H](CO)NC(=O)[C@H](C)NC(=O)[C@H](CCC(N)=O)NC(=O)CNC(=O)[C@@H](NC(=O)[C@H](C)NC(=O)[C@H](CO)NC(=O)[C@@H]1CCCN1C(=O)[C@H](C)NC(=O)[C@H](CCC(=O)O)NC(=O)[C@@H](NC(=O)[C@H](CCCNC(=N)N)NC(=O)[C@H](Cc1c[nH]c2ccccc12)NC(=O)[C@@H](NC(=O)[C@H](CCC(=O)O)NC(=O)[C@H](CS)NC(=O)[C@H](Cc1ccc(O)cc1)NC(=O)[C@H](CO)NC(=O)CCCCCNC(=O)CCCC[C@@H]1SC[C@@H]2NC(=O)N[C@@H]21)[C@@H](C)O)[C@@H](C)O)[C@@H](C)O)C(=O)NCC(=O)N[C@@H](CCC(N)=O)C(=O)N[C@@H](CO)C(=O)N[C@@H](C)C(=O)N[C@@H](C)C(=O)N[C@@H](CO)C(=O)N[C@@H](CS)C(=O)N[C@@H](Cc1c[nH]cn1)C(=O)N[C@@H](Cc1c[nH]cn1)C(=O)N[C@@H](C)C(N)=O` [BioE4-03] ({Biotin-Ahx}-SYCETWRTEAPSATGQASSLLGGRLLGQSAASCHHA-NH2), in data set [1] (10 μg/ml, 72 hours (FIG. 16)), the Coll1A2 levels result is reported as “significant reduction” and the SMA levels entry is recorded as “significant reduction”. For the same molecule, in data set [2], the Coll1A2 levels result was “trend towards decrease” and the SMA levels result is on record as “trend towards decrease”.

For the molecule “Biotin-SYCETWRTEAPSATGQASSLLGGRLLGQSAASCHHAYIVLCIENSFMT-NH2 (cysteines drawn unpaired) [BioE4]”, in data set [3], the “mean rate of increase in the tumor volume on day 15 (model-based estimate)” value is listed as “significantly (p=0.02) greater in the Control group when compared to the BioE4 group” and the “mean tumor volume at day 15 (model-based estimate)” value was “significantly (p=0.0001) greater in the Control group when compared to the BioE4 group”.

With `CC(C)C[C@H](NC(=O)[C@H](CC(C)C)NC(=O)[C@H](CCCNC(=N)N)NC(=O)CNC(=O)CNC(=O)[C@H](CC(C)C)NC(=O)[C@H](CC(C)C)NC(=O)[C@H](CO)NC(=O)[C@H](CO)NC(=O)[C@H](C)NC(=O)[C@H](CCC(N)=O)NC(=O)CNC(=O)[C@@H](NC(=O)[C@H](C)NC(=O)CCCC[C@@H]1SC[C@@H]2NC(=O)N[C@@H]21)[C@@H](C)O)C(=O)NCC(=O)N[C@@H](CCC(N)=O)C(=O)N[C@@H](CO)C(=O)N[C@@H](C)C(=O)N[C@@H](C)C(=O)N[C@@H](CO)C(=O)N[C@@H](CS)C(=O)N[C@@H](Cc1c[nH]cn1)C(=O)N[C@@H](Cc1c[nH]cn1)C(=O)N[C@@H](C)C(N)=O` [Bio96-17] (Biotin-ATGQASSLLGGRLLGQSAASCHHA-NH2), in data set [1] (Bio96-17 treatment (FIG. 15)), the Coll1A2 levels entry is reported as “significant reduction” and the SMA levels entry is reported as “significant reduction”.

`CC(C)C[C@H](NC(=O)[C@H](CC(C)C)NC(=O)[C@H](CO)NC(=O)[C@H](CO)NC(=O)[C@H](C)NC(=O)[C@H](CCC(N)=O)NC(=O)CNC(=O)[C@@H](NC(=O)[C@H](C)NC(=O)CCCC[C@@H]1SC[C@@H]2NC(=O)N[C@@H]21)[C@@H](C)O)C(N)=O` [Bio96, Biotin-NH2-ATGQASSLL-CONH2] (Biotin-ATGQASSLL-NH2): in data set [4] (PBS control 151.1 mm^3 per day), the “mean rate of increase in the tumor volume at day 21 (model-based estimate)” value is listed as 90.6 mm^3 per day. For the same molecule, the “mean tumor volume at day 21 (model-based estimate)” value in data set [4] (PBS control 1492.1 mm^3) is on record as 871.4 mm^3. The tumor cell arrangement entry in the data set on tumors (H&E staining, tumors from treated mice) was “looser cell arrangement”. For the same molecule, the “collagen bundles in the tumors” value in the data set on tumors (Masson Trichrome stain, compared to vehicle treated mice) is listed as “thinner collagen bundles”.
